A short description of one series: solvent given as SMILES. Conditions: in CS(C)=O.
Compound `CCOC(=O)CN1C(=O)C2=C(c3ccccc3)N(CC(=O)OCC)C(=O)C2=C1c1ccccc1` yielded an emission maximum of 519 nm.

Staying with this series, now noted: in Cc1ccccc1.
`CC1(C)c2ccccc2N(c2cc3c4ccccc4n4c5ccccc5c(c2)c34)c2ccccc21`: the emission maximum is given as 439 nm. The same measure, in the same setting: for `CC1(C)c2ccccc2N(c2ccc(-c3ccc4c(c3)c3cc(-c5ccc(N6c7ccccc7C(C)(C)c7ccccc76)cc5)ccc3c3nc(C#N)c(C#N)nc43)cc2)c2ccccc21` the value was 612 nm; for `CC(C)(C)c1ccc(C(C)(C)C)c(N2C(=O)c3cccc4c(-c5ccc(-c6ccccc6)s5)ccc(c34)C2=O)c1`, 493 nm; for `COCCC1=Cc2nc1ccc1[nH]c(cc1CCOC)c1nc(ccc3[nH]c2cc3CCO)C(CCOC)=C1`, 643 nm. On the same count and under the same terms, for `CC1(C)c2ccccc2N(c2ccccc2)c2ccc(-c3ccc(S(=O)(=O)c4ccc(-c5ccc6c(c5)C(C)(C)c5ccccc5N6c5ccccc5)cc4)cc3)cc21` the value was 419.03 nm; for `O=C1c2ccc(-c3ccc(N(c4ccccc4)c4ccccc4)cc3)cc2C(=O)c2ccc(-c3ccc(N(c4ccccc4)c4ccccc4)cc3)cc21`, 597 nm; for `[O-]c1ccccc1-c1[nH+]c2c3ccccc3c3ccccc3c2o1`, 495 nm. Same read-out and setting: for `COC(=O)/C(C#N)=c1\s/c(=c2/s/c(=C(/C#N)C(=O)OC)c3cc(-c4ccc(F)cc4)sc23)c2sc(-c3ccc(F)cc3)cc12` the value was 640 nm; for `Cc1csc2[n+]1[B-](F)(F)OC(c1ccc(N(C)C)cc1)=N2`, 437 nm; for `c1ccc2c(c1)ccc1ccccc12`, 350 nm. `c1ccc(-c2nc(-c3ccc(-n4c5ccc(-n6c7ccccc7c7ccccc76)cc5c5ccc6c(c7ccccc7n6-c6ccccc6)c54)cc3)c3sc4ccccc4c3n2)cc1` returned an emission maximum of 460.56 nm. `Cc1cc2cc(N3c4ccccc4Oc4ccccc43)ccc2c(=O)o1` gave an emission maximum of 540 nm.

On to `CCOC(=O)CN1C(=O)C2=C(c3ccccc3)N(CC(=O)OCC)C(=O)C2=C1c1ccccc1`, for which the emission maximum came out at 520 nm.

Still in this series, the particulars now being: in ClC(Cl)Cl.
Compound `O=C(O)c1ccccc1Nc1ccccc1` had an emission maximum of 450 nm. In turn, `C[Si]1(C)O[Si](C)(C)c2cc3cc4c(cc3cc21)C(=O)c1cc2cc3c(cc2cc1C4=O)[Si](C)(C)O[Si]3(C)C` displayed an emission maximum of 437 nm.

The compound `Cc1ccc(C2CC(=O)Oc3c2c2nc4ccc(C)cc4nc2c2ccccc32)cc1` (stereo unspecified) yielded an emission maximum of 442 nm.

In the case of `CC1=CC(C)=[N+]2C1=C(c1ccc(I)cc1)c1c(C)cc(C)n1[B-]2(Oc1ccc(Cl)cc1)Oc1ccc(Cl)cc1`, the emission maximum is listed as 519.7 nm. On the same count and under the same terms, for `COC(=O)c1ccc(C2=C3C(C)=CC(C)=[N+]3[B-](F)(F)n3c(/C=C/c4c[nH]cn4)cc(C)c32)cc1` the value was 589 nm; for `CN1C(=CC2=C([O-])C(=CC3=[N+](C)c4ccccc4C3(C)C)C2=C(C#N)C#N)C(C)(C)c2ccccc21`, 700 nm. The same measure, in the same setting: for `CO[B-]1(OC)n2c(C)cc(C)c2C(c2ccc(I)cc2)=C2C(C)=CC(C)=[N+]21` the value was 517.6 nm; for `CC(C)(C)c1ccc2oc3nc4oc5ccc(-n6c7ccccc7c7ccccc76)cc5c4cc3c2c1`, 446 nm. Still for that read-out and setting: for `O=[N+]([O-])c1ccc(C#Cc2ccc3ccccc3c2)cc1` the value was 536 nm.

Staying with this series, now noted: in ClCCl.
Regarding `CN(C)c1ccc(C2=CC3=C(c4ccc(C=C(C#N)C#N)cc4)[C@H]4c5ccccc5[C@]3(S2)c2ccccc24)cc1`, the emission maximum is 735 nm. Still for that read-out and setting: the value for `C(=C\c1nc2c(c(N3CCOCC3)n1)CCCC2)/c1ccccc1` was 333 nm. Same read-out and setting: for `CC1=CC(C)=[N+]2C1=Cc1c3ccccc3c(C#Cc3cccs3)n1[B-]2(F)F` the value was 631 nm; for `CSc1ccc(/C=C/c2cnc3ccccc3n2)cc1`, 475 nm. Still for that read-out and setting: the value for `O=P1(c2ccccc2)C(c2ccccc2)=Cc2cc3ccccc3cc21` (stereo unspecified) was 428 nm; that for `CCCCC(CC)Cn1c2cc(C#N)ccc2c2ccc(C#Cc3ccc4ccc5c(C#Cc6ccc7c8ccc(C#N)cc8n(CC(CC)CCCC)c7c6)cc(C#Cc6ccc7c8ccc(C#N)cc8n(CC(CC)CCCC)c7c6)c6ccc3c4c56)cc21` (stereo unspecified) was 458 nm; that for `CCCCN(CCCC)c1ccc(C#Cc2cc(C#Cc3ccc(N(CCCC)CCCC)cc3)c(C#Cc3cc(C(F)(F)F)cc(C(F)(F)F)c3)cc2C#Cc2cc(C(F)(F)F)cc(C(F)(F)F)c2)cc1` was 552 nm. `CC(C)(C)NC(=O)c1ccc(-c2ccc(N3c4ccccc4Oc4ccccc43)cc2)c2ccc3c4ccc(F)cc4c4cc(F)ccc4c3c12` displayed an emission maximum of 573 nm. Compound `CC(C)[Si](C#Cc1c2cc3ccccc3cc2c(C#C[Si](C(C)C)(C(C)C)C(C)C)c2nc3ccccc3nc12)(C(C)C)C(C)C` showed an emission maximum of 738 nm. Still for that read-out and setting: the value for `CCN(CC)c1ccc2cc(-c3nc4cc(C(=O)Nc5cccc(OC)c5)ccc4o3)c(=O)oc2c1` was 494 nm. Turning to `COC(=O)c1cc(=O)n(Cc2ccccc2)c2cc(-c3ccc(OC)cc3)sc12`, the emission maximum amounted to 474 nm. Still for that read-out and setting: the value for `c1ccc(C2c3ccc4ccc5ccccc5c4c3-c3c2ccc2ccc4ccccc4c32)cc1` was 425 nm; that for `O=Cc1ccc(-c2ccc(O)c(-c3nc4ccccc4s3)c2)s1` was 553 nm; that for `O=[N+]([O-])c1ccc(C#Cc2ccc3ccccc3c2)cc1` was 546 nm.

In turn, `CCn1c2ccc(/C=C/c3ccc4c(c3)c3cc(-c5nc6ccccc6s5)ccc3n4CC)cc2c2cc(-c3nc4ccccc4s3)ccc21` registered an emission maximum of 442 nm. The same measure, in the same setting: the value for `Cc1cccc2cc(C)c3c4ccccc4[nH]c3c12` was 364 nm; that for `Cc1csc2[n+]1[B-](F)(F)OC(c1ccc(N(C)C)cc1)=N2` was 453 nm.

The same series, now with this note: in O.
For the compound `O=Cc1ccc(-c2ccc(O)c(-c3nc4ccccc4s3)c2)s1`, the emission maximum came to 574 nm.

Still in this series, the particulars now being: in O=P(c1ccccc1)(c1ccccc1)c1cccc(-c2cc(-n3c4ccccc4c4ccccc43)cc(-n3c4ccccc4c4ccccc43)c2)n1.
In turn, `CC1(C)c2ccccc2N(c2ccc(-c3ccc4c(c3)c3cc(-c5ccc(N6c7ccccc7C(C)(C)c7ccccc76)cc5)ccc3c3nc(C#N)c(C#N)nc43)cc2)c2ccccc21` registered an emission maximum of 594 nm.

Still in this series, the particulars now being: in O=P(c1ccccc1)(c1ccccc1)c1ccccc1Oc1ccccc1P(=O)(c1ccccc1)c1ccccc1.
For `CC1(C)c2ccccc2N(c2ccccc2)c2ccc(-c3ccc(S(=O)(=O)c4ccc(-c5ccc6c(c5)C(C)(C)c5ccccc5N6c5ccccc5)cc4)cc3)cc21`, the emission maximum came to 439 nm.

Compound `N#Cc1cc(C#N)c(-n2c3ccccc3c3c(-c4cccc5c4c4ccccc4n5-c4cc(-n5c6ccccc6c6ccccc65)c(C#N)cc4C#N)cccc32)cc1-n1c2ccccc2c2ccccc21` yielded an emission maximum of 444 nm.

The series is the same for the next values; noted with them: in c1ccc2c(c1)c1ccccc1n2-c1ccc(-c2ccc(-n3c4ccccc4c4ccccc43)cc2)cc1.
On to `O=C1c2ccc(-c3ccc(N(c4ccccc4)c4ccccc4)cc3)cc2C(=O)c2ccc(-c3ccc(N(c4ccccc4)c4ccccc4)cc3)cc21`, for which the emission maximum came to 594 nm.

The series is the same for the next values; noted with them: in c1ccccc1.
In turn, `CCCCN(CCCC)c1ccc(C#Cc2cc(C#Cc3ccc(N(CCCC)CCCC)cc3)c(C#Cc3cc(C(F)(F)F)cc(C(F)(F)F)c3)cc2C#Cc2cc(C(F)(F)F)cc(C(F)(F)F)c2)cc1` had an emission maximum of 514 nm.

Values taken from the Deep4Chem optical property database.
